For one test, the target named is rat orexin 1 receptor (Rattus norvegicus, UniProt P56718). The experiment in a line: Rat orexin 1 receptor radioligand binding (competitive). As to conditions: HEK293 cells stably expressing rat orexin 1 receptor; 4 nM radioligand; averages of 2-20 runs; read-out: rOX1 Ki. In short, it runs like this: (§1)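 Competition binding used HEK293 cells expressing rat OX1 or CHO cells expressing human OX1, with 4 nM final [3H]-labelled thiazolyl-oxadiazolyl-pyrrolidinyl methanone radioligand in PBS. Compounds were tested at 7 concentrations (0.1 nM–10 μM) for 60 min at room temperature, then filtered; 10 μM almorexant defined nonspecific binding. Ki was derived from the one-site IC50 and the radioligand Kd.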

The target in another test is human orexin 1 receptor (Homo sapiens (Human), UniProt O43613). The experiment in a line: Human orexin 1 receptor radioligand binding (competitive). As to conditions: CHO cells stably expressing human orexin 1 receptor; 4 nM radioligand; averages of 2-20 runs; read-out: hOX1 Ki. In short, it runs like this:
as §1

Another test concerns the target human orexin 2 receptor (Homo sapiens (Human), UniProt O43614). The experiment in a line: Human orexin 2 receptor radioligand binding ([3H]-EMPA competition). As to conditions: HEK293 stably expressing human orexin 2 receptor; 2 nM [3H]-EMPA; averages of 2-20 runs; read-out: hOX2 Ki. In short, it runs like this:
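Membranes-free whole HEK293 cells stably expressing human OX2 receptor incubated with [3H]-EMPA and compound (7 concentrations, 0.1 nM–10 μM, ≤0.1% DMSO) for 60 min at room temperature; nonspecific binding with 10 μM almorexant. Filtration and scintillation counting; one-site IC50 converted to Ki using predetermined Kd, triplicates averaged over 2-20 runs.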

Sequence of human orexin 1 receptor (O43613 whole entry): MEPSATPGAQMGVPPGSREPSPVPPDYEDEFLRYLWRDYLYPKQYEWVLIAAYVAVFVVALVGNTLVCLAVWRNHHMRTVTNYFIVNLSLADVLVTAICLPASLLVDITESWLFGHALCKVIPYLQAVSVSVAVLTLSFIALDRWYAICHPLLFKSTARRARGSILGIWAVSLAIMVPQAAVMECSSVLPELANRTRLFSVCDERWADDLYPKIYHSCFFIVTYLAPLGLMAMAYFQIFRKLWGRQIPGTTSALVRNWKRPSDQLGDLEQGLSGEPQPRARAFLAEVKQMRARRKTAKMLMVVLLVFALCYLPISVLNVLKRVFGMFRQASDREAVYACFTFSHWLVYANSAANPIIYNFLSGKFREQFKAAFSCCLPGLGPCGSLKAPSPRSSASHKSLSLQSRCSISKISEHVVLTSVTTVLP
Sequence of human orexin 2 receptor (O43614 whole entry): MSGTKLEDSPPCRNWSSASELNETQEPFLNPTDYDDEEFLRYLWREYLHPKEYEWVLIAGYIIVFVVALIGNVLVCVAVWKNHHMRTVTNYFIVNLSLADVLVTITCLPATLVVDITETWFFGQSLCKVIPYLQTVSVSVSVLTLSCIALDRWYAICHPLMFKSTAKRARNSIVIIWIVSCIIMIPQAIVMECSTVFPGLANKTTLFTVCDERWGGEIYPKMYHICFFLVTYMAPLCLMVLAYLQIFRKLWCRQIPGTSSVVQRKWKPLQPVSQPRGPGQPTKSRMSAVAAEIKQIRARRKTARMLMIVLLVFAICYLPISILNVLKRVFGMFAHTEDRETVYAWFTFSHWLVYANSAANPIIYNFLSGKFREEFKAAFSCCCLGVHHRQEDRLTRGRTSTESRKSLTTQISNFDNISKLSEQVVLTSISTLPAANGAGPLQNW

With `Cc1ccc(-n2nccn2)c(C(=O)N2[C@H](C)[C@H]3C[C@@H](Oc4cnc5cc(F)c(F)cc5n4)[C@@H]2C3)n1` (relative stereo) [Example 189, ((1S*,3R*,4R*,6R*)-6-((6,7-difluoroquinoxalin-2-yl)oxy)-3-methyl-2-azabicyclo[2.2.1]heptan-2-yl)(6-methyl-3-(2H-1,2,3-triazol-2-yl)pyridin-2-yl)methanone], the Ki was 41 nM at rat orexin 1 receptor, 42 nM on human orexin 1 receptor and 109 nM at human orexin 2 receptor.

As for `CC1C2CC(Oc3ccc(C(F)(F)F)cn3)C(C2)N1C(=O)c1cccc(F)c1-c1ncccn1` (single isomer, unassigned) [Example 1, (R/S)-(3-fluoro-2-(pyrimidin-2-yl)phenyl)(3-methyl-6-((5-(trifluoromethyl)pyridin-2-yl)oxy)-2-azabicyclo[2.2.1]heptan-2-yl)methanone], the Ki on rat orexin 1 receptor stood at 24 nM; at human orexin 1 receptor, 84 nM; at human orexin 2 receptor it was 5200 nM.

For `CC1C2CC(Oc3ccc(C(F)(F)F)cn3)C(C2)N1C(=O)c1cccc(F)c1-c1ncccn1` (single isomer, unassigned) [Example 8, (R/S)-(3-fluoro-2-(pyrimidin-2-yl)phenyl)(3-methyl-6-((5-(trifluoromethyl)pyridin-2-yl)oxy)-2-azabicyclo[2.2.1]heptan-2-yl)methanone], the values for the Ki at rat orexin 1 receptor, on human orexin 1 receptor and on human orexin 2 receptor were 11 nM, 16 nM and 1100 nM, respectively.

Turning to `Cc1ccc(-c2ncccn2)c(C(=O)N2[C@H](C)[C@H]3C[C@@H](Nc4ccc(C(F)(F)F)cn4)[C@@H]2C3)n1` [Example 60, (6-methyl-3-(pyrimidin-2-yl)pyridin-2-yl)((1S,3R,4S,6R)-3-methyl-6-((5-(trifluoromethyl)pyridin-2-yl)amino)-2-azabicyclo[2.2.1]heptan-2-yl)methanone], the inhibition constant (Ki) at rat orexin 1 receptor came out at 16 nM; on human orexin 1 receptor, 19 nM; on human orexin 2 receptor it was 349 nM.

Turning to `Cc1ccc(-c2ncccn2)c(C(=O)N2[C@H](CF)[C@@H]3CC[C@H]2[C@H](Oc2ccc(C(F)(F)F)cn2)C3)n1` [Example 74, ((1S,3S,4R,6R)-3-(fluoromethyl)-6-((5-(trifluoromethyl)pyridin-2-yl)oxy)-2-azabicyclo[2.2.2]octan-2-yl)(6-methyl-3-(pyrimidin-2-yl)pyridin-2-yl)methanone], the inhibition constant (Ki) on rat orexin 1 receptor stood at 48 nM; at human orexin 1 receptor, 35 nM; on human orexin 2 receptor, 3760 nM.

In the case of `O=C(c1ccccc1-c1ncccn1)N1[C@H](CF)[C@@H]2CC[C@H]1[C@H](Oc1ccc(C(F)(F)F)cn1)C2` [Example 75, ((1S,3S,4R,6R)-3-(fluoromethyl)-6-((5-(trifluoromethyl)pyridin-2-yl)oxy)-2-azabicyclo[2.2.2]octan-2-yl)(2-(pyrimidin-2-yl)phenyl)methanone], the Ki on rat orexin 1 receptor was 92 nM; at human orexin 1 receptor, 66 nM; on human orexin 2 receptor, greater than 10000 nM.

For `O=C(c1cc(F)ccc1-c1ncccn1)N1[C@H](CF)[C@@H]2CC[C@H]1[C@H](Oc1ccc(C(F)(F)F)cn1)C2` [Example 76, (5-fluoro-2-(pyrimidin-2-yl)phenyl)((1S,3S,4R,6R)-3-(fluoromethyl)-6-((5-(trifluoromethyl)pyridin-2-yl)oxy)-2-azabicyclo[2.2.2]octan-2-yl)methanone], the Ki on rat orexin 1 receptor is 36 nM; on human orexin 1 receptor, 46 nM; on human orexin 2 receptor, greater than 10000 nM.

Turning to `Cc1ccc(-n2nccn2)c(C(=O)N2[C@H](CF)[C@@H]3CC[C@H]2[C@H](Oc2ccc(C(F)(F)F)cn2)C3)n1` [Example 77, ((1S,3S,4R,6R)-3-(fluoromethyl)-6-((5-(trifluoromethyl)pyridin-2-yl)oxy)-2-azabicyclo[2.2.2]octan-2-yl)(6-methyl-3-(2H-1,2,3-triazol-2-yl)pyridin-2-yl)methanone], the inhibition constant (Ki) at rat orexin 1 receptor came out at 13 nM; at human orexin 1 receptor, 20 nM; on human orexin 2 receptor, 4780 nM.

`O=C(c1cc(F)ccc1-n1nccn1)N1[C@H](CF)[C@@H]2CC[C@H]1[C@H](Oc1ccc(C(F)(F)F)cn1)C2` [Example 78, (5-fluoro-2-(2H-1,2,3-triazol-2-yl)phenyl)((1S,3S,4R,6R)-3-(fluoromethyl)-6-((5-(trifluoromethyl)pyridin-2-yl)oxy)-2-azabicyclo[2.2.2]octan-2-yl)methanone]: the Ki at rat orexin 1 receptor was 122 nM; at human orexin 1 receptor it was 102 nM; on human orexin 2 receptor it was greater than 10000 nM.

As to `O=C(c1cccc(F)c1-c1ncccn1)N1[C@H](CF)[C@@H]2CC[C@H]1[C@H](Oc1ccc(C(F)(F)F)cn1)C2` [Example 79, (3-fluoro-2-(pyrimidin-2-yl)phenyl)((1S,3S,4R,6R)-3-(fluoromethyl)-6-((5-(trifluoromethyl)pyridin-2-yl)oxy)-2-azabicyclo[2.2.2]octan-2-yl)methanone], the Ki is 49 nM at rat orexin 1 receptor, 46 nM at human orexin 1 receptor and greater than 10000 nM at human orexin 2 receptor.

For `O=C(c1cc(F)ccc1-c1ncc(F)cn1)N1[C@H](CF)[C@@H]2CC[C@H]1[C@H](Oc1ccc(C(F)(F)F)cn1)C2` [Example 80, (5-fluoro-2-(5-fluoropyrimidin-2-yl)phenyl)((1S,3S,4R,6R)-3-(fluoromethyl)-6-((5-(trifluoromethyl)pyridin-2-yl)oxy)-2-azabicyclo[2.2.2]octan-2-yl)methanone], the Ki at rat orexin 1 receptor was determined as 43 nM; on human orexin 1 receptor, 35 nM; on human orexin 2 receptor, 4170 nM.

As to `Cc1ccc(-n2nccn2)c(C(=O)N2[C@H](C)[C@H]3C[C@@H](Oc4ccc(C(F)F)cn4)[C@@H]2C3)n1` [Example 110, [(1R,2R,4S,5R)-5-[[5-(difluoromethyl)-2-pyridyl]oxy]-2-methyl-3-azabicyclo[2.2.1]heptan-3-yl]-[6-methyl-3-(triazol-2-yl)-2-pyridyl]methanone], the figures for the Ki on rat orexin 1 receptor, at human orexin 1 receptor and on human orexin 2 receptor were 7 nM, 5 nM and 146 nM, respectively.

For the compound `C[C@@H]1[C@@H]2CC[C@@H]([C@H](Oc3ccc(C(F)(F)F)cn3)C2)N1C(=O)c1cccc(F)c1-c1ncccn1` [Example 148, (3-fluoro-2-pyrimidin-2-yl-phenyl)-[(1R,2R,4S,5R)-2-methyl-5-[[5-(trifluoromethyl)-2-pyridyl]oxy]-3-azabicyclo[2.2.2]octan-3-yl]methanone], the Ki on rat orexin 1 receptor stood at 12 nM; on human orexin 1 receptor it was 14 nM; at human orexin 2 receptor, 2400 nM.

Regarding `Cc1ccc(-n2nccn2)c(C(=O)N2[C@H](C)[C@@H]3CC[C@H]2[C@H](Oc2ccc(C(F)(F)F)cn2)C3)n1` [Example 156, [6-methyl-3-(triazol-2-yl)-2-pyridyl]-[(1R,2R,4S,5R)-2-methyl-5-[[5-(trifluoromethyl)-2-pyridyl]oxy]-3-azabicyclo[2.2.2]octan-3-yl]methanone], the figures for the inhibition constant Ki on rat orexin 1 receptor, on human orexin 1 receptor and on human orexin 2 receptor were 6 nM, 10 nM and 1100 nM, respectively.

In the case of `C[C@@H]1[C@@H]2CC[C@@H]([C@H](Oc3ccc(C(F)(F)F)cn3)C2)N1C(=O)c1ccccc1-n1nccn1` [Example 157, [(1R,2R,4S,5R)-2-methyl-5-[[5-(trifluoromethyl)-2-pyridyl]oxy]-3-azabicyclo[2.2.2]octan-3-yl]-[2-(triazol-2-yl)phenyl]methanone], the inhibition constant (Ki) on rat orexin 1 receptor came out at 29 nM; on human orexin 1 receptor it was 129 nM; at human orexin 2 receptor, 6000 nM.

As to `Cc1ccc(-c2ncccn2)c(C(=O)N2[C@H](C)[C@@H]3CC[C@H]2[C@H](Oc2ccc(C(F)(F)F)cn2)C3)n1` [Example 158, (6-methyl-3-pyrimidin-2-yl-2-pyridyl)-[(1R,2R,4S,5R)-2-methyl-5-[[5-(trifluoromethyl)-2-pyridyl]oxy]-3-azabicyclo[2.2.2]octan-3-yl]methanone], the Ki is 35 nM at rat orexin 1 receptor, 138 nM on human orexin 1 receptor and 2700 nM on human orexin 2 receptor.

As for `C[C@@H]1[C@@H]2CC[C@@H]([C@H](Oc3ccc(C(F)(F)F)cn3)C2)N1C(=O)c1ncccc1-n1nccn1` [Example 159, [(1R,2R,4S,5R)-2-methyl-5-[[5-(trifluoromethyl)-2-pyridyl]oxy]-3-azabicyclo[2.2.2]octan-3-yl]-[3-(triazol-2-yl)-2-pyridyl]methanone], the figures for the Ki at rat orexin 1 receptor, on human orexin 1 receptor and at human orexin 2 receptor were 14 nM, 41 nM and 2800 nM, respectively.

In the case of `Cc1cnc(C(=O)N2[C@H](C)[C@@H]3CC[C@H]2[C@H](Oc2ccc(C(F)(F)F)cn2)C3)c(-n2nccn2)c1` [Example 160, [5-methyl-3-(triazol-2-yl)-2-pyridyl]-[(1R,2R,4S,5R)-2-methyl-5-[[5-(trifluoromethyl)-2-pyridyl]oxy]-3-azabicyclo[2.2.2]octan-3-yl]methanone], the inhibition constant (Ki) on rat orexin 1 receptor was 8 nM; on human orexin 1 receptor it was 11 nM; at human orexin 2 receptor, 872 nM.

For the compound `Cc1cnc(C(=O)N2[C@H](C)[C@@H]3CC[C@H]2[C@H](Oc2ccc(C(F)(F)F)cn2)C3)c(-c2ncccn2)c1` [Example 161, (5-methyl-3-pyrimidin-2-yl-2-pyridyl)-[(1R,2R,4S,5R)-2-methyl-5-[[5-(trifluoromethyl)-2-pyridyl]oxy]-3-azabicyclo[2.2.2]octan-3-yl]methanone], the inhibition constant (Ki) at rat orexin 1 receptor worked out at 4 nM; on human orexin 1 receptor, 8 nM; on human orexin 2 receptor, 5000 nM.

For the origin of these results see US9611262B2, “Substituted 2-azabicycles and their use as orexin receptor modulators” (JANSSEN PHARMACEUTICA NV, priority 2014, dated 2017).
